Among the data in patent US12202835B2, “Substituted aromatic ring-linked dioxinoquinazolines and dioxinoquinolines as kinase inhibitors” (BEIJING SCITECH-MQ PHARMACEUTICALS LIMITED, priority 2018, dated 2025) are IC50 values, retold here.

What is called IC50 is the point on the concentration scale where inhibition reaches its midpoint.

Format in all cases: biochemical
In test [1] the target is TRKA kinase (Homo sapiens (Human), UniProt P04629). The test can be described thus: Assay of small molecular compounds for inhibiting the activity of TRKA kinase (LANCE TR-FRET). Here is the method:
The assay of small molecular compounds for inhibiting the activity of TRKA kinase is based on the LANCE TR-FRET technology of Perkin Elmer Inc., and the assay method is as follows: • 1. […] 2.5 μL of the gradient-diluted compounds were taken with a transfer pipette to a 384-well plate. • 3. Addition of enzyme: 5 μL of 2×TRKA kinase solution (with a concentration of 2 nM) was taken with a transfer pipette to the corresponding reaction well of the 384-well plate, mixed well and pre-reacted at room temperature for 5 minutes. • 4. 2.5 μL 4× Ultra ULight-labeled TK Peptide (with a concentration of 400 nM)/ATP (with a concentration of 40 μM) mixture was taken with a transfer pipette to the corresponding reaction well of the 384-well plate. • 5. Negative control: 2.5 μL/well 4× substrate/ATP mixture and 7.5 μL 1× Kinase Assay Buffer were added to the wells of the 384-well plate.
(§1) Positive control: 2.5 μL/well 4× substrate/ATP mixture, 2.5 μL/well 1× Kinase Assay Buffer containing 4% DMSO, and 5 μL/well 2×TRKA kinase solution were added to the 384-well plate. The final concentration of DMSO in the reaction system was 1%. • 6. The mixture was mixed well and then centrifuged and reacted at room temperature in dark for 60 min. • 7. Termination of the enzymatic reaction: 5 μL of 4× stop solution was taken with a transfer pipette to the wells of the 384-well plate, mixed and then centrifuged, and reacted at room temperature for 5 min. • 8. Development of the reaction: 5 μL of 4× detection solution was taken with a transfer pipette to the wells of the 384-well plate for color development, and the mixture was mixed and then centrifuged and reacted at room temperature for 60 min. • 9. The 384-well plate was placed into the Envision plate reader and the signal was detected using the appropriate program.
A general note: Time-resolved FRET reads energy transfer from a long-lived donor to a nearby acceptor.

For test [2], the target named is c-MET kinase (Homo sapiens (Human), UniProt P08581). The test can be described thus: Assay of small molecular compounds for inhibiting the activity of c-MET kinase (LANCE TR-FRET). Particulars: read-out: CMET IC50. On the procedure:
The assay is based on the LANCE TR-FRET technology of Perkin Elmer Inc., and the assay method is as follows: • 1. Dilution of compounds: a total of 11 concentrations were obtained using a 3-fold gradient dilution from the highest concentration of 2500 nM (the maximum final concentration of the drug used in this assay was 2500 nM, and the minimum final concentration was 0.042 nM). • 2. 2.5 μL of the gradient-diluted compounds were taken with a transfer pipette to a 384-well plate. • 3. Addition of enzyme: 5 μL of 2×c-MET kinase solution (with a concentration of 2 nM) was taken with a transfer pipette to the corresponding reaction well of the 384-well plate, mixed well and pre-reacted at room temperature for 5 minutes. • 4. 2.5 μL 4× Ultra ULight™-JAK-1 (Tyr1023) Peptide (with a concentration of 400 nM)/ATP (with a concentration of 40 μM) mixture was taken with a transfer pipette to the corresponding reaction well of the 384-well plate. • 5. Negative control: 2.5 μL/well 4× substrate/ATP mixture and 7.5 μL 1× Kinase Assay Buffer were added to the wells of the 384-well plate. • 6. Positive control: 2.5 μL/well 4× substrate/ATP mixture, 2.5 μL/well 1× Kinase Assay Buffer containing 16% DMSO, and 5 μL/well 2× c-MET kinase solution were added to the 384-well plate. The final concentration of DMSO in the reaction system was 4%. • 7. The mixture was mixed well and then centrifuged and reacted at room temperature in dark for 60 min. • 8. Termination of the enzymatic reaction: 5 μL of 4× stop solution was taken with a transfer pipette to the wells of the 384-well plate, mixed and then centrifuged, and reacted at room temperature for 5 min. • 9. Development of the reaction: 5 μL of 4× detection solution was taken with a transfer pipette to the wells of the 384-well plate for color development, and the mixture was mixed and then centrifuged and reacted at room temperature for 60 min. • 10. The 384-well plate was placed into the Envision plate reader and the signal was detected using the appropriate program. • 11. Analysis and processing of the raw data: • 12. The drug concentrations and the corresponding inhibition rates were input into GraphPad Prism5 for calculation, and the inhibition rate of the compounds were calculated as follows: inhibition rate (%)=(reading of positive well−reading of experimental well)/(reading of positive control well−reading of negative control well)×100%. Processing with GraphPad Prism5 software yielded the corresponding IC50 values (the concentration of the compound at which 50% of the highest inhibition of the enzyme is achieved).

Test [3] has as its target MER kinase (Homo sapiens (Human), UniProt Q12866). Nature of the test: Assay of small molecular compounds for inhibiting the activity of MER kinase (LANCE TR-FRET). Here is the method: The assay of small molecular compounds for inhibiting the activity of MER kinase is based on the LANCE TR-FRET technology of Perkin Elmer Inc., and the assay method is as follows: • 1. Dilution of compounds: a total of 11 concentrations were obtained using a 3-fold gradient dilution from the highest concentration of 2500 nM (the maximum final concentration of the drug used in this assay was 2500 nM, and the minimum final concentration was 0.042 nM). • 2. 2.5 μL of the gradient-diluted compounds were taken with a transfer pipette to a 384-well plate. • 3. Addition of enzyme: 5 μL of 2×MER kinase solution (with a concentration of 1 nM) was taken with a transfer pipette to the corresponding reaction well of the 384-well plate, mixed well and pre-reacted at room temperature for 5 minutes. • 4. 2.5 μL 4× ULight-labeled Ploy GT (with a concentration of 200 nM)/ATP (with a concentration of 20 μM) mixture was taken with a transfer pipette to the corresponding reaction well of the 384-well plate. • 5. Negative control: 2.5 μL/well 4× substrate/ATP mixture and 7.5 μL 1× Kinase Assay Buffer were added to the wells of the 384-well plate.
as §1, with “2×MER” for “2×TRKA”, “program. • 10. Analysis and processing of the raw data:” for “program.”
The drug concentrations and the corresponding inhibition rates were input into GraphPad Prism5 for calculation, and the inhibition rate of the compounds were calculated as follows: inhibition rate (%)=(reading of positive well−reading of experimental well)/(reading of positive control well−reading of negative control well)×100%. Processing with GraphPad Prism5 software yielded the corresponding IC50 values (the concentration of the compound at which 50% of the highest inhibition of the enzyme is achieved).

Sequence of TRKA kinase (P04629 33-796): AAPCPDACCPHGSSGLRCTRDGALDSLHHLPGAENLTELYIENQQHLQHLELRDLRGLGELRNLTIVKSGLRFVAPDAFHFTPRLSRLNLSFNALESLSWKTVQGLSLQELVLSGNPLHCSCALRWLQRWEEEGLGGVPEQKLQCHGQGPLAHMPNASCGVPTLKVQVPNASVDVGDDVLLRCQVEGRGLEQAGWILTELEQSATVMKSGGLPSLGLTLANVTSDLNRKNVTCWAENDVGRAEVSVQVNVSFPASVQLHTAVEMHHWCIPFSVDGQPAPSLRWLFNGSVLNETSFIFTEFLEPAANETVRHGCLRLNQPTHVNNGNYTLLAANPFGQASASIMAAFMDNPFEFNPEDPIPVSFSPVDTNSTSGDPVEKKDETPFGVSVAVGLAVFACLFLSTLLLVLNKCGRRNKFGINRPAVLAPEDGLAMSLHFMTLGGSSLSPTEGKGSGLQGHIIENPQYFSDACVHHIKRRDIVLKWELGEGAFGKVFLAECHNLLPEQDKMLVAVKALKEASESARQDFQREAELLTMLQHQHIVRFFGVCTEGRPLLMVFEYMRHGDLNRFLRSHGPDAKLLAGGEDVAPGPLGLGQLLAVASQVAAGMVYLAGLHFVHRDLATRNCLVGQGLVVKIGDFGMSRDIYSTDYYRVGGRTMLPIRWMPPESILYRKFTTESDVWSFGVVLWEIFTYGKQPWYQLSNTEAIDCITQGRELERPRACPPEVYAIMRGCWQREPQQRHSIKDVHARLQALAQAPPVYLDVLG
Sequence of MER kinase (Q12866 21-999): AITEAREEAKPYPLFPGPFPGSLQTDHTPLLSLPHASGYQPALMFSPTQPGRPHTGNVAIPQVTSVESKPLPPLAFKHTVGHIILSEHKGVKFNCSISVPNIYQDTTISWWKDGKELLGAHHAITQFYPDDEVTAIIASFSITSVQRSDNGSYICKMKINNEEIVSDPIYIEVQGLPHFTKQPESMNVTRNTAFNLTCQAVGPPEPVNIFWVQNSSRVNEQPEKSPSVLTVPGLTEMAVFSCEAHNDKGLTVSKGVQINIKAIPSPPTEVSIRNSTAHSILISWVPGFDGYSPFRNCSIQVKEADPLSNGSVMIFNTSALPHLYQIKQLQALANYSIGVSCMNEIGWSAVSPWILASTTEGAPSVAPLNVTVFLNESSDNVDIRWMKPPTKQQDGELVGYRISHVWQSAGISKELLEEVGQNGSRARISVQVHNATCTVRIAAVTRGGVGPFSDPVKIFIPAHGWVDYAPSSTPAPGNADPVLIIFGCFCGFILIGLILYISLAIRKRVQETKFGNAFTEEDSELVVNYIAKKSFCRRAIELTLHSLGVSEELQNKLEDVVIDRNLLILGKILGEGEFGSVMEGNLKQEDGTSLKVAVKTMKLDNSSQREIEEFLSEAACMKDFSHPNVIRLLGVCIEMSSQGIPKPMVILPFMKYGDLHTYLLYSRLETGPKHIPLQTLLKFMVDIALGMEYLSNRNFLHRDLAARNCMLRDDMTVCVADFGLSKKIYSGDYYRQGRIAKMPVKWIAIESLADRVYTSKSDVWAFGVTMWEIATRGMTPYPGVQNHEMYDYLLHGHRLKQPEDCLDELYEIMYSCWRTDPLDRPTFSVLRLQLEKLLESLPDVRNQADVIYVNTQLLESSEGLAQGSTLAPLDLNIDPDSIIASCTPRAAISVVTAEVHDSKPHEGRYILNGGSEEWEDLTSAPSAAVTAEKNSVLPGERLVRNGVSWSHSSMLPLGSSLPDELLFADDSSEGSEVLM
Sequence of c-MET kinase (P08581 25-1390): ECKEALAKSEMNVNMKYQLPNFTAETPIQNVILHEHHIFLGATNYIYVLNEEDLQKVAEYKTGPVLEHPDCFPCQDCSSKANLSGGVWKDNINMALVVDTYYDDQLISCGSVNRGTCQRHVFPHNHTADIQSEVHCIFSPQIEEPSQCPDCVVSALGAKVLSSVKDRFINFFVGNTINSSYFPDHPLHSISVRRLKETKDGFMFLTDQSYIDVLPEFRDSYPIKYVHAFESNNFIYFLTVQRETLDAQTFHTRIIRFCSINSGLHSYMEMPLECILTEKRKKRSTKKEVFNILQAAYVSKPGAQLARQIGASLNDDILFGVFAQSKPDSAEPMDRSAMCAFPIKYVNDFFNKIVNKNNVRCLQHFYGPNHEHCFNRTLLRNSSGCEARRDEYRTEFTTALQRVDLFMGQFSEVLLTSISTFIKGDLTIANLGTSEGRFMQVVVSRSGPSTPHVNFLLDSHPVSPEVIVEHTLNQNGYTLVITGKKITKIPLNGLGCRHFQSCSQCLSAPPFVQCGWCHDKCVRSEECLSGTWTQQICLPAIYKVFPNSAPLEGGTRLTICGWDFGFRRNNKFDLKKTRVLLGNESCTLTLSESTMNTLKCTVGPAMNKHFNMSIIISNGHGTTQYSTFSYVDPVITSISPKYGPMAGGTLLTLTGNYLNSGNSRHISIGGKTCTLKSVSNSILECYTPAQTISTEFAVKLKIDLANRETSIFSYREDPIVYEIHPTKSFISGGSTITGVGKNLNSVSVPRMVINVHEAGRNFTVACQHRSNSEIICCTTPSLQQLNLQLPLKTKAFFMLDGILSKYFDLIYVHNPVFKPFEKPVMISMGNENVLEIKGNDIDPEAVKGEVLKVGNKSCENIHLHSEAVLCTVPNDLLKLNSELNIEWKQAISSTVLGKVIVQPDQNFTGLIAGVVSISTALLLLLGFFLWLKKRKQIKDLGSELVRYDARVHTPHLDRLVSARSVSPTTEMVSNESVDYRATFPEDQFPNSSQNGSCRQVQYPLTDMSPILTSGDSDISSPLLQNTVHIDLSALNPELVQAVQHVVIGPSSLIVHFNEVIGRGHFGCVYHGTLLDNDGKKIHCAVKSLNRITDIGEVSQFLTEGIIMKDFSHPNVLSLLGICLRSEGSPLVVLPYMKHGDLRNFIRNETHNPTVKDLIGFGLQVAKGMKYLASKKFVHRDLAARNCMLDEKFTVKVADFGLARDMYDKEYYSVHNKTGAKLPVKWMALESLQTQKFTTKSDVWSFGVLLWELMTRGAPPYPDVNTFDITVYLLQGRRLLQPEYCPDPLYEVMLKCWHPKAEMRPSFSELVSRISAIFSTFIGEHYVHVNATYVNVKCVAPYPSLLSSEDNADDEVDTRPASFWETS

Turning to `Cn1cc(C(=O)Nc2ccc(Oc3ccnc4cc(OCC5CC5)c5c(c34)OCCO5)c(F)c2)c(=O)n(-c2ccc(F)cc2)c1=O` [Example 84, N-(3-fluoro-4-((5-(cyclopropylmethoxy)-2,3-dihydro-[1,4]dioxino[2,3-f]quinolin-10-yl)oxy)phenyl)-3-(4-fluorophenyl)-1-methyl-2,4-dioxo-1,2,3,4-tetrahydropyrimidine-5-carboxamide], the IC50 in test [1], in test [2] and in test [3] was 50 to 500 nM in each case.

Regarding `COc1cc2nccc(Oc3ccc(NC(=O)c4cn(CC5CC5)c(=O)n(-c5ccc(F)cc5)c4=O)cc3F)c2c2c1OCCO2` [Example 48, N-(3-fluoro-4-((5-methoxy-2,3-dihydro-[1,4]dioxino[2,3-f]quinolin-10-yl)oxy)phenyl)-3-(4-fluorophenyl)-1-(cyclopropylmethyl)-2,4-dioxo-1,2,3,4-tetrahydropyrimidine-5-carboxamide], the IC50 is 50 to 500 nM in test [1], no more than 50 nM in test [2] and 50 to 500 nM in test [3].

As to `COc1cc2nccc(Oc3ccc(NC(=O)c4cn(C(C)C)c(=O)n(-c5ccc(F)cc5)c4=O)cc3F)c2c2c1OCCO2` [Example 14, N-(3-fluoro-4-((5-methoxy-2,3-dihydro-[1,4]dioxino[2,3-f]quinolin-10-yl)oxy)phenyl)-3-(4-fluorophenyl)-1-isopropyl-2,4-dioxo-1,2,3,4-tetrahydropyrimidine-5-carboxamide], the IC50 in test [1] was 50 to 500 nM; in test [2], no more than 50 nM; in test [3], no more than 50 nM.

For `CCOc1cn(-c2ccc(F)cc2C)nc1C(=O)Nc1ccc(Oc2ncnc3cc(OC)c4c(c23)OCCO4)c(F)c1` [Example 9, 1-(4-fluoro-2-methylphenyl)-N-(3-fluoro-4-((5-methoxy-2,3-dihydro-[1,4]dioxino[2,3-f]quinazolin-10-yl)oxy)phenyl)-4-ethoxy-1H-pyrazole-3-carboxamide], the IC50 in test [2] is 50 to 500 nM; in test [3], 500 to 5000 nM.

Take `Cc1cc(F)ccc1-n1ccc(C(=O)Nc2ccc(Oc3ncnc4cc(OCCCN5CCOCC5)c5c(c34)OCCO5)c(F)c2)n1` [Example 10, 1-(4-fluoro-2-methylphenyl)-N-(3-fluoro-4-((5-(3-morpholinopropoxy)-2,3-dihydro-[1,4]dioxino[2,3-f]quinazolin-10-yl)oxy)phenyl)-1H-pyrazole-3-carboxamide]: the IC50 was no more than 50 nM in test [2] and 50 to 500 nM in test [3].

Consider `Cn1cc(C(=O)Nc2ccc(Oc3ccnc4cc(OCCCC#N)c5c(c34)OCCO5)cc2Cl)c(=O)n(-c2ccc(F)cc2)c1=O` [Example 133, N-(2-chloro-4-((5-(3-cyanopropoxy)-2,3-dihydro-[1,4]dioxino[2,3-f]quinolin-10-yl)oxy)phenyl)-3-(4-fluorophenyl)-1-methyl-2,4-dioxo-1,2,3,4-tetrahydropyrimidine-5-carboxamide], for which the IC50 in test [1] is 50 to 500 nM; in test [2], no more than 50 nM; in test [3], 500 to 5000 nM.

`COc1cc2nccc(Oc3ccc(NC(=O)c4cn(C(C)C)c(=O)n(-c5ccc(Cl)cc5)c4=O)cc3F)c2c2c1OCCO2` [Example 108, N-(3-fluoro-4-((5-methoxy-2,3-dihydro-[1,4]dioxino[2,3-f]quinolin-10-yl)oxy)phenyl)-3-(4-chlorophenyl)-1-isopropyl-2,4-dioxo-1,2,3,4-tetrahydropyrimidine-5-carboxamide]: the figures for the IC50 in test [1], in test [2] and in test [3] were 500 to 5000 nM, 50 to 500 nM and 50 to 500 nM, respectively.

Turning to `COc1cc2nccc(Oc3ccc(NC(=O)c4ccn(-c5ccc(F)cc5C)n4)cc3F)c2c2c1OCCO2` [Example 23, 1-(4-fluoro-2-methylphenyl)-N-(3-fluoro-4-((5-methoxy-2,3-dihydro-[1,4]dioxino[2,3-f]quinolin-10-yl)oxy)phenyl)-1H-pyrazole-3-carboxamide], the IC50 in test [1] was 50 to 500 nM; in test [2], 50 to 500 nM; in test [3] it was 500 to 5000 nM.

For the molecule `CC(C)n1cc(C(=O)Nc2ccc(Oc3ccnc4cc(OC5COC5)c5c(c34)OCCO5)c(F)c2)c(=O)n(-c2ccc(F)cc2)c1=O` [Example 89, N-(3-fluoro-4-((5-((oxetan-3-yl)oxy)-2,3-dihydro-[1,4]dioxino[2,3-f]quinolin-10-yl)oxy)phenyl)-3-(4-fluorophenyl)-1-isopropyl-2,4-dioxo-1,2,3,4-tetrahydropyrimidine-5-carboxamide], the IC50 in test [1] was 50 to 500 nM; in test [2], 50 to 500 nM; in test [3], no more than 50 nM.

Take `COc1cc2nccc(Oc3ccc(NC(=O)c4cn(CC(C)C)c(=O)n(-c5ccc(F)cc5)c4=O)cc3F)c2c2c1OCCO2` [Example 47, N-(3-fluoro-4-((5-methoxy-2,3-dihydro-[1,4]dioxino[2,3-f]quinolin-10-yl)oxy)phenyl)-3-(4-fluorophenyl)-1-isobutyl-2,4-dioxo-1,2,3,4-tetrahydropyrimidine-5-carboxamide]: the figures for the IC50 in test [1], in test [2] and in test [3] were 50 to 500 nM, no more than 50 nM and 50 to 500 nM, respectively.

Turning to `COc1cn(-c2ccc(F)cc2C)nc1C(=O)Nc1ccc(Oc2ncnc3cc(OC)c4c(c23)OCCO4)c(F)c1` [Example 8, 1-(4-fluoro-2-methylphenyl)-N-(3-fluoro-4-((5-methoxy-2,3-dihydro-[1,4]dioxino[2,3-f]quinazolin-10-yl)oxy)phenyl)-4-methoxy-1H-pyrazole-3-carboxamide], the IC50 in test [2] lay within 50 to 500 nM; in test [3] it was 500 to 5000 nM.
